Data as given in paper PMC7211193, “Evaluation of absorption, distribution, metabolism, and excretion of [^14C]-rucaparib, a poly(ADP-ribose) polymerase inhibitor, in patients with advanced solid tumors” (Investigational New Drugs, 2019).
Values joined by “and” are separate entries in the source; they are usually repeats but may differ in a detail not shown here. Equal entries are not always repeated.

Tests used:
Assay type in all cases: in vivo, human
[1] = Metabolite profiling in pooled urine (LC-MS-Radiomatic); details: for % Dose in urine: pooled urine, % of administered dose
Experimental: For each patient, urine samples from different collection intervals were pooled in proportion to their sample weight in order to obtain a pooled sample covering 90% of the TRA in urine. Pooled urine samples were lyophilized and then extracted at least twice with acetonitrile. The obtained supernatant was evaporated to dryness, and the dried residues were reconstituted in 20% acetonitrile in water containing 0.1% TFA. An aliquot of the supernatant was analyzed for TRA to determine extraction efficiency, and the mean recovery was ≈70%. Aliquots of the supernatants were injected into the HPLC coupled to UV and radioactive detectors to obtain metabolite profiles. The samples were also analyzed using LC-MS for metabolite identification.
(§1) Metabolite profiling and identification were performed on an LC system (Agilent) coupled to an LTQ Orbitrap mass spectrometer (Thermo Electron, Waltham, MA, USA) in combination with offline TopCount (LC-MS-TopCount) or online Radiomatic 625TR (LC-MS-Radiomatic; PerkinElmer). Proposed structures of the metabolites were based on accurate mass (<5 ppm) and comparison of mass spectral data of parent compound rucaparib and metabolite standard M324. The Radiomatic 625TR flow detector, equipped with a 200 μL flow cell, was operated using scintillation cocktail (Ultima-Flo M) delivered at a flow rate of 1 mL/min. Chromatography was done using a Phenomenex (Torrance, CA, USA) Luna Phenyl-Hexyl column (250 × 2 mm, 5 μm, 100 Å) at ambient temperature during the sample analysis. The mobile phase was (A) 0.05% TFA in water and (B) 0.05% TFA in acetonitrile, with a 0.2 mL/min flow rate. The gradient was as follows: 5% B over 2.1 min, to 20% B in 1.0 min, to 35% B in 16.9 min, isocratic at 35% B for 5 min, to 95% B over 5 min, and reduced to 5% B over 1 min, with total run time 45 min.
The abundance of unchanged rucaparib and metabolites identified in plasma, urine, and feces was determined as a percentage of the TRA in the analyzed samples. Percentage of the administered dose of rucaparib and metabolites was calculated in urine and feces (formula A). The concentration of rucaparib and its metabolites in plasma (ng Eq h/mL) was calculated based on the specific activity, TRA, and percentage of peaks (formula B). The AUC0-24h value of rucaparib and its major metabolite M324 in plasma was calculated using both Hamilton method (formula C) and linear trapezoidal method (formula D). • (A) %Doseofmetabolite=TRAinurineorfeces(dpm)÷TRAinadministereddose(dpm)×%metabolitesinmatrix • (B) Metaboliteconcentrationsinplasma(ngEq/mL)=TRAinplasma(dpm/mL)specificactivity(ngEq/dpm)×%metabolitesinthematrix • (C) Hamiltonmethod:AUC0−24h(ngEqh/mL)=concentrationinHamilton(AUC0−24h)pooledplasma(ngEq/mL)×24(h) • (D) Lineartrapezoidalmethod:AUC0−24h(ngEqh/mL)=C1h/2×1h+C1h+C4h/2×(4h−1h)+C4h+C8h/2×(8h−4h)+C8h+C24h/2×(24h−8h)

[2] = Total radioactivity (TRA) pharmacokinetics in plasma and blood by liquid scintillation counting; details: for Cmax, total radioactivity in plasma: patients N = 6
Experimental: Six patients received a single oral dose of [^14C]-rucaparib 600 mg (approximately 5.18 MBq or 140 μCi) on day 1 after fasting for 10 h and were confined at the study site for the collection of blood samples and excreta for a maximum of 12 days.
Blood samples were collected in K2 ethylenediaminetetraacetic acid (K2-EDTA) tubes at the following time points: 0 (predose), 1, 2, 3, 4, 8, 12, 24, 48, 72, 96, 120, and 144 h after administration. Blood samples were taken via an indwelling intravenous catheter or by direct vein puncture into appropriate tubes. Aliquots of blood samples were centrifuged at 1600–2000×g for 10 min at 4 °C, and supernatants were collected for plasma samples. All plasma and blood samples were stored at −70 °C until analysis. Plasma and blood samples were evaluated for total radioactivity (TRA) by liquid scintillation (LSC), parent drug concentrations by liquid chromatography (LC) with tandem mass spectrometry (MS/MS) analyses, and metabolite profiling by LC coupled to diode array ultraviolet (UV) detection and MS or radioactivity detection.
TRA analysis was performed on a Liquid Scintillation Counter Tri-Carb Model 3100TR (PerkinElmer). Aliquots of blood (300 μL), plasma (250 μL), and urine (1 mL) were transferred to scintillation vials. Blood samples were incubated at ≥60 °C with SOLVABLE (1 mL). After cooling to room temperature, EDTA (0.1 M, 100 μL) and hydrogen peroxide (225 μL) were added to dissolve blood cells, reduce foaming, and decrease color intensity. Finally, after incubation at ≥45 °C and ≥60 °C, Ultima Gold (≥5-fold) was added, and the samples were analyzed with LSC. For urine samples, Ultima Gold (≥5-fold) was added, and the samples were analyzed with LSC.
Blood and plasma TRA data and the plasma concentration of rucaparib were used to determine the Cmax, tmax, AUC from time zero to time of last measurable concentration (AUC0-t), and AUC from time zero to infinity (AUC0-inf), apparent volume of distribution (Vd/F), apparent clearance (CL/F), and terminal half-life (t1/2). Phoenix WinNonlin software version 6.3 or higher (Certara, Princeton, NJ, USA) was used to run a noncompartmental method analysis on the PK data.

[3] = Metabolite identification by LC-MS/MS in plasma, urine and feces; details: F feces, P plasma, U urine
Experimental: as §1
The LTQ Orbitrap mass spectrometer was equipped with an electrospray ionization interface and operated in positive ionization mode for metabolite profiling and identification. Mass spectra were acquired in full scan (MS) (m/z 150–1500) and data-dependent scan modes. Mass spectrometer parameter settings were: spray voltage, +5.0 kV; capillary temperature, 350 °C; sheath gas, 80 (arbitrary unit); auxiliary gas, 30 (arbitrary unit); activation Q, 0.25; activation time, 30 msec; resolution, 7500; and collision energy, 35 eV.
The structures of the metabolites were identified by LC-MS/MS based on comparisons of mass spectral fragmentation patterns with those produced by the parent compound. Further confirmation of the identities of the metabolites was based on the elemental composition determined from accurate mass analyses using an Orbitrap high-resolution mass spectrometer.
The structures of the major metabolites found in plasma, urine, and feces were also confirmed by comparisons with the synthetic reference standard M324.

[4] = single oral [14C]-rucaparib 600 mg, N = 6, mean ± SD
[5] = single oral [14C]-rucaparib 600 mg, N = 6, mean ± SD, listed as rucaparib
[6] = single oral [14C]-rucaparib 600 mg, N = 6, median (range)

CNCc1ccc(-c2[nH]c3cc(F)cc4c3c2CCNC4=O)cc1 [Rucaparib, rucaparib]
% of dose in pooled urine, Patient 01 ([1]; Patient 01): 14.3 % dose | % of dose in pooled urine, Patient 03 ([1]; Patient 03): 5.03 % dose | % of dose in pooled urine, Patient 05 ([1]; Patient 05): 2.85 % dose | % of dose in pooled urine, Patient 06 ([1]; Patient 06): 5.96 % dose | % of dose in pooled urine, Patient 08 ([1]; Patient 08): 10.7 % dose | % of dose in pooled urine, Patient 09 ([1]; Patient 09): 6.77 % dose | % Peak (of TRA) in urine ([1]; pooled urine covering 90% of urine radioactivity, N = 6, mean ± SD): 44.9 ± 15.6% | % Dose in urine ([1]; N = 6, mean ± SD): 7.59 ± 4.16% | % Dose in urine ([1]; N = 6, mean ± SD, listed as rucaparib): ≈ 7.6% and > 7% | AUC0-24h/AUC0-inf ratio, blood TRA ([2]; in vivo): 0.563 | AUC0-24h/AUC0-inf ratio, plasma TRA ([2]; in vivo): 0.461 | AUC0-inf, total radioactivity in blood [2, 4]: 25,500 ± 5510 ng Eq h/mL | AUC0-inf, total radioactivity in plasma [2, 4]: 30,000 ± 7810 ng Eq h/mL | AUC0-t, total radioactivity in blood [2, 4]: 18,100 ± 5460 ng Eq h/mL | AUC0-t, total radioactivity in plasma [2, 4]: 24,100 ± 8580 ng Eq h/mL | Blood to plasma ratio of total radioactivity, AUC0-inf [2, 4]: 0.781 ± 0.041 | Blood to plasma ratio of total radioactivity, Cmax [2, 4]: 1.00 ± 0.12 | CL/F, total radioactivity in blood [2, 4]: 22.6 ± 2.22 L/h | CL/F, total radioactivity in plasma [2, 4]: 19.6 ± 4.83 L/h | Cmax, total radioactivity in blood [2, 4]: 882 ± 355 ng Eq/mL | Vd/F, total radioactivity in blood [2, 4]: 911 ± 246 L | Vd/F, total radioactivity in plasma [2, 4]: 814 ± 129 L | t1/2, total radioactivity in blood [2, 4]: 28.3 ± 8.49 h | t1/2, total radioactivity in plasma [2, 4]: 30.4 ± 8.89 h | Blood to plasma ratio of total radioactivity, Cmax [2, 5]: 1.0 | t1/2, total radioactivity in blood [2, 5]: > 25 h | t1/2, total radioactivity in plasma [2, 5]: > 25 h and 30.4 h | tmax, total radioactivity in blood [2, 6]: 4 (0.933–8.00) h | tmax, total radioactivity in plasma [2, 6]: 4 (0.933–8.00) h | tmax, total radioactivity in blood ([2]; single oral [14C]-rucaparib 600 mg, N = 6, median (range), listed as [^14C]-rucaparib): approximately 4 h | tmax, total radioactivity in blood ([2]; single oral [14C]-rucaparib 600 mg, N = 6, median (range), listed as rucaparib): 4 h | Cmax, total radioactivity in plasma ([2]; single oral [14C]-rucaparib 600 mg, mean ± SD): 880 ± 309 ng Eq/mL | Cmax, total radioactivity in plasma ([2]; single oral [14C]-rucaparib 600 mg, mean ± SD, listed as rucaparib): 880 ng Eq/mL | Matrix in which identified [3]: P, U, F
